Data reported in ChEMBL document CHEMBL1143443, “Discovery of (naphthalen-4-yl)(phenyl)methanones and N-methyl-N-phenylnaphthalen-1-amines as new apoptosis inducers using a cell- and caspase-based HTS assay” (Bioorg Med Chem Lett, 2008).

Columns and labels:
[1] = tested on: HCT-116; assay: Induction of apoptosis in human HCT116 cells assessed as caspase activation by HTS assay; assay type: functional, cell-based
[2] = tested on: T47D; assay: Induction of apoptosis in human T47D cells assessed as caspase activation by HTS assay; assay type: functional, cell-based
[3] = tested on: SNU-398; assay: Induction of apoptosis in human SNU398 cells assessed as caspase activation by HTS assay; assay type: functional, cell-based
[4] = tested on: T47D; assay: Cytotoxicity against human T47D cells; assay type: functional
[5] = tested on: HCT-116; assay: Cell cycle arrest in human HCT116 cells assessed as increase in subG1 phase population at 100 nM after 24 hrs by flow cytometry; assay type: functional
[6] = tested on: HCT-116; assay: Cell cycle arrest in human HCT116 cells assessed as increase in subG1 phase population at 100 nM after 48 hrs by flow cytometry; assay type: functional
[7] = tested on: HCT-116; assay: Cell cycle arrest in human HCT116 cells assessed as increase in G2/M phase population at 100 nM after 24 hrs by flow cytometry; assay type: functional
[8] = tested on: SNU-398; assay: Cytotoxicity against human SNU398 cells; assay type: functional
[9] = tested on: HCT-116; assay: Cytotoxicity against human HCT116 cells; assay type: functional

SMILES | EC50 [1] [nM] | EC50 [2] [nM] | EC50 [3] [nM] | GI50 [4] [nM] | Activity [5] [%] | Activity [6] [%] | Activity [7] [%] | GI50 [8] [nM] | GI50 [9] [nM]
COc1cccc(C(=O)c2ccc(N(C)C)c3ccccc23)c1 | 5100 | 2600 | 3500 |  |  |  |  |  | 
COc1ccc(N(C)c2ccc(N)c3ccccc23)cc1 | 11000 | 12000 | 5300 |  |  |  |  |  | 
COc1ccc(N(C)c2ccc([N+](=O)[O-])c3ccccc23)cc1 | 280 | 240 | 330 |  |  |  |  |  | 
COc1cccc(N(C)c2ccc(N(C)C)c3ccccc23)c1 | 4600 | 4400 | 4700 |  |  |  |  |  | 
COc1ccc(C(=O)c2ccc([N+](=O)[O-])cc2)c2ccccc12 | > 10000 | > 10000 | > 10000 |  |  |  |  |  | 
COc1cc(OC)cc(C(=O)c2ccc(N(C)C)c3ccccc23)c1 | 1900 | 1300 | 1500 |  |  |  |  |  | 

Now from value to molecule, other results behind:

EC50 [1] [nM] | EC50 [2] [nM] | EC50 [3] [nM] | SMILES | GI50 [4] [nM] | Activity [5] [%] | Activity [6] [%] | Activity [7] [%] | GI50 [8] [nM] | GI50 [9] [nM]
1200 | 420 | 570 | COc1cc(C(=O)c2ccc(N(C)C)c3ccccc23)cc(OC)c1OC |  |  |  |  |  | 
620 | 590 | 760 | COc1ccc(C(OC)c2ccc(N(C)C)c3ccccc23)cc1 (stereo not given) |  |  |  |  |  | 
49 | 37 | 44 | CN(C)c1ccc(C(=O)c2ccc(N(C)C)c3ccccc23)cc1 | 34 | 4 | 53 | 12 | 27 | 68
260 | 140 | 170 | COc1ccc(C(O)c2ccc(N(C)C)c3ccccc23)cc1 (stereo not given) | 230 |  |  |  | 170 | 490
490 | 380 | 520 | CN(C)c1ccc(C(O)c2ccc(N(C)C)c3ccccc23)cc1 (stereo not given) |  |  |  |  |  | 
1200 | 810 | 980 | COc1ccc(C(=O)c2ccc(N(C)C)cc2)c2ccccc12 |  |  |  |  |  | 
650 | 470 | 560 | COc1ccc(C(=O)c2ccc(N(C)C)c3ccccc23)cc1OC |  |  |  |  |  | 
610 | 510 | 720 | COc1ccc(N(C)c2ccc(N(C)C)c3ccccc23)cc1 | 260 |  |  |  | 150 | 320
86 | 72 | 74 | COc1ccc(C(=O)c2ccc(N(C)C)c3ccccc23)cc1 | 39 |  |  |  | 27 | 100
